Data published in patent US20230416232A1, “PYRIMIDINE COMPOUNDS, COMPOSITIONS, AND MEDICINAL APPLICATIONS THEREOF” (Blueprint Medicines Corporation, priority 2020, published 2023).
Where a name gives a salt, the structure may show the parent alone.

What was measured:
Assay type in all cases: cell-based
A431 cells = experiment: Cellular proliferation (Alamar Blue) assay, A431 cells; conditions: Homo sapiens, A-431, 72 h, A431 cells; 72 hr; Alamar Blue; read-out: A431 IC50
Protocol: (§1) • 1. Seed cells at 5000 for A431 and 15,000 cells for Ba/F3 in 100 μL/well in complete media (for A431: DMEM with 10% FBS and for Ba/F3 cells: RPMI with 10% FBS) in 96-well tissue culture plate. Leave outer wells without cells for background measurements. Incubate at 37 degree Celsius in 5% CO2 humidified incubator for 16-18 hours. • 2. Add 0.025 ml of 5X concentration compound dilution or DMSO control. Final compound concentration range is 10-0.0005 μM prepared in 3-fold serial dilutions. Incubate for 72 hr at 37 degree Celsius in 5% CO2 humidified incubator. • 3. Add 0.0125 ml Alamar Blue™ reagent to each well with multi-channel pipette and tap gently on each side of the plate to mix. Incubate for 3 hours at 37 degree Celsius in 5% CO2 humidified incubator. • 4. […] Data analysis was performed using XLfit 5.5.0.5.

[1] = target: HER2 (A775_G776insYVMA) expressing Ba/F3 stable cell line (Homo sapiens, UniProt P04626, DUP772-775, cells depend on it); experiment: Cellular proliferation (Alamar Blue) assay, HER2 (A775_G776insYVMA) Ba/F3; conditions: HER2 (A775_G776insYVMA) Ba/F3 cells; 72 hr; Alamar Blue; read-out: YVMA IC50
Protocol: (§2) Cell line details: • 1. EGFR(D770_N771insSVD) expressing Ba/F3 stable cell line • 2. EGFR (A767_dupASV) expressing Ba/F3 stable cell line • 3. A431 cells • 4. EGFR (H773insNPH) expressing Ba/F3 stable cell line • 5. HER2 (A775_G776insYVMA) expressing Ba/F3 stable cell line
as §1

[2] = target: EGFR(D770_N771insSVD) expressing Ba/F3 stable cell line (Homo sapiens, UniProt P00533, DUP768-770, cells depend on it); experiment: Cellular proliferation (Alamar Blue) assay, EGFR(D770_N771insSVD) Ba/F3; conditions: 72 hr, read-out: D770 IC50
Protocol: as §2, §1

[3] = target: EGFR (A767_dupASV) expressing Ba/F3 stable cell line (Homo sapiens, UniProt P00533, DUP767-769, cells depend on it); experiment: Cellular proliferation (Alamar Blue) assay, EGFR (A767_dupASV) Ba/F3; conditions: 72 hr, read-out: A767 IC50
Protocol: as §2, §1

HER2 (A775_G776insYVMA) expressing Ba/F3 stable cell line, sequence (P04626 with tags, fused parts or gaps DUP772-775): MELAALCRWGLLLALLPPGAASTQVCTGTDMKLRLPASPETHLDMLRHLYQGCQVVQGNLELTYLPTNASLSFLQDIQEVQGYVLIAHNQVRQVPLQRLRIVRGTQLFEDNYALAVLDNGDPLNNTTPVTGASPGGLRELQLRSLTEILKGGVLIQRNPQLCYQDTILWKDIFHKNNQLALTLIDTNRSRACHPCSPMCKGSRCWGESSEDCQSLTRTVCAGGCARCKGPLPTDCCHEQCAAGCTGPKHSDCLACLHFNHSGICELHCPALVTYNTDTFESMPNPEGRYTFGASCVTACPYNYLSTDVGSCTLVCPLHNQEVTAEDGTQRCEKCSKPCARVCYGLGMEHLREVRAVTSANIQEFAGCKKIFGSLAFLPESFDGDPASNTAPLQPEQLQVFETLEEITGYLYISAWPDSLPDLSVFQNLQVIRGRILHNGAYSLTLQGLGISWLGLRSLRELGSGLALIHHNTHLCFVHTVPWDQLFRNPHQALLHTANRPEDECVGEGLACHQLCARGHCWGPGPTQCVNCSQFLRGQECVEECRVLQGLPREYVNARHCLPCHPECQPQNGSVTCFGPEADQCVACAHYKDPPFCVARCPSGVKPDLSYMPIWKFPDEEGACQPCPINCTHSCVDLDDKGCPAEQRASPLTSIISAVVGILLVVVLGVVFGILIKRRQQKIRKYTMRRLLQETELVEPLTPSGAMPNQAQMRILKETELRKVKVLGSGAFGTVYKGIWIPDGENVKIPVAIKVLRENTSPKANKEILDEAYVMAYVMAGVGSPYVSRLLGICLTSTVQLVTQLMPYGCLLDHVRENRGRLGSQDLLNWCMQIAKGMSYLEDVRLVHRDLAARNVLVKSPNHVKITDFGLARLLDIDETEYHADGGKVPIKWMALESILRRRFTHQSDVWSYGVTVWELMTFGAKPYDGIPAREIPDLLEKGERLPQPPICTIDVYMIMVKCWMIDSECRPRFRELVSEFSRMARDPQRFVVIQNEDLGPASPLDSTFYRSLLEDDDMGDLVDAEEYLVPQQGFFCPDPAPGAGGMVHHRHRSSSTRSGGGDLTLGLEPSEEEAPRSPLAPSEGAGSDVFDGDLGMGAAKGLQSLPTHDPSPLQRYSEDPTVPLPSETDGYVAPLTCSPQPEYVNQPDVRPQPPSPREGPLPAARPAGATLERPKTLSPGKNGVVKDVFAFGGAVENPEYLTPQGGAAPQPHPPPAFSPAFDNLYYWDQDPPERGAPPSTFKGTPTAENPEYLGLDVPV
EGFR(D770_N771insSVD) expressing Ba/F3 stable cell line, sequence (P00533 with tags, fused parts or gaps DUP768-770): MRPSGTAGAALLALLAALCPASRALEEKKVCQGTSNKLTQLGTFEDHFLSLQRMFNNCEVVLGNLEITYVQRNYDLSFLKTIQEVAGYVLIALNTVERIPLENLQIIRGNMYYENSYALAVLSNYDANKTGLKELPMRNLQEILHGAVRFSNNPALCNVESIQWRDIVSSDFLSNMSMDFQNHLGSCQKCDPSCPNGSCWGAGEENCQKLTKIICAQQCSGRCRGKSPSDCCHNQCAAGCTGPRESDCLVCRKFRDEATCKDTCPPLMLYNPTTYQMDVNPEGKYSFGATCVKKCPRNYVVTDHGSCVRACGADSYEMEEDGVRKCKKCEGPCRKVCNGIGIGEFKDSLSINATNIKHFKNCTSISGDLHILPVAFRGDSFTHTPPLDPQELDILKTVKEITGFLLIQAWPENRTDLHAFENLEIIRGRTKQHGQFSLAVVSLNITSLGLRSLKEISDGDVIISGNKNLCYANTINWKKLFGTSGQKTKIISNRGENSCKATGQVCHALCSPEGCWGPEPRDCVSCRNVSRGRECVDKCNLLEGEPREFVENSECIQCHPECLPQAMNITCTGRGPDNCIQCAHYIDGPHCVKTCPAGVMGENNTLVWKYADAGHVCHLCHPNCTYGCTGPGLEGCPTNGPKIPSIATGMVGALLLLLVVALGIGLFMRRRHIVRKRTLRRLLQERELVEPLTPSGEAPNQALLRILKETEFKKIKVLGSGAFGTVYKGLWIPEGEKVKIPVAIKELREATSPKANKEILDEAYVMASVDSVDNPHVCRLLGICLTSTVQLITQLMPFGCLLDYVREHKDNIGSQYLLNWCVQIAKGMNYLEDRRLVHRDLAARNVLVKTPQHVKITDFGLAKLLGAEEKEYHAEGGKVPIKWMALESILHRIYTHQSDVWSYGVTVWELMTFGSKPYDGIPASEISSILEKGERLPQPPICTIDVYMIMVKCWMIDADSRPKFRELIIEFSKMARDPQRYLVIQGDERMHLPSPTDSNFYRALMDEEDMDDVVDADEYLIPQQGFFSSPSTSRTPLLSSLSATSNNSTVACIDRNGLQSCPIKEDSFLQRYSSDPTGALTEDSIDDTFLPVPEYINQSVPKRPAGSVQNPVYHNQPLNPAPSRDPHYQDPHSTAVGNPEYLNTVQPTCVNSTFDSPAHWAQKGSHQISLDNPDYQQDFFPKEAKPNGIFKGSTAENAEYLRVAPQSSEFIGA
EGFR (A767_dupASV) expressing Ba/F3 stable cell line, sequence (P00533 with tags, fused parts or gaps DUP767-769): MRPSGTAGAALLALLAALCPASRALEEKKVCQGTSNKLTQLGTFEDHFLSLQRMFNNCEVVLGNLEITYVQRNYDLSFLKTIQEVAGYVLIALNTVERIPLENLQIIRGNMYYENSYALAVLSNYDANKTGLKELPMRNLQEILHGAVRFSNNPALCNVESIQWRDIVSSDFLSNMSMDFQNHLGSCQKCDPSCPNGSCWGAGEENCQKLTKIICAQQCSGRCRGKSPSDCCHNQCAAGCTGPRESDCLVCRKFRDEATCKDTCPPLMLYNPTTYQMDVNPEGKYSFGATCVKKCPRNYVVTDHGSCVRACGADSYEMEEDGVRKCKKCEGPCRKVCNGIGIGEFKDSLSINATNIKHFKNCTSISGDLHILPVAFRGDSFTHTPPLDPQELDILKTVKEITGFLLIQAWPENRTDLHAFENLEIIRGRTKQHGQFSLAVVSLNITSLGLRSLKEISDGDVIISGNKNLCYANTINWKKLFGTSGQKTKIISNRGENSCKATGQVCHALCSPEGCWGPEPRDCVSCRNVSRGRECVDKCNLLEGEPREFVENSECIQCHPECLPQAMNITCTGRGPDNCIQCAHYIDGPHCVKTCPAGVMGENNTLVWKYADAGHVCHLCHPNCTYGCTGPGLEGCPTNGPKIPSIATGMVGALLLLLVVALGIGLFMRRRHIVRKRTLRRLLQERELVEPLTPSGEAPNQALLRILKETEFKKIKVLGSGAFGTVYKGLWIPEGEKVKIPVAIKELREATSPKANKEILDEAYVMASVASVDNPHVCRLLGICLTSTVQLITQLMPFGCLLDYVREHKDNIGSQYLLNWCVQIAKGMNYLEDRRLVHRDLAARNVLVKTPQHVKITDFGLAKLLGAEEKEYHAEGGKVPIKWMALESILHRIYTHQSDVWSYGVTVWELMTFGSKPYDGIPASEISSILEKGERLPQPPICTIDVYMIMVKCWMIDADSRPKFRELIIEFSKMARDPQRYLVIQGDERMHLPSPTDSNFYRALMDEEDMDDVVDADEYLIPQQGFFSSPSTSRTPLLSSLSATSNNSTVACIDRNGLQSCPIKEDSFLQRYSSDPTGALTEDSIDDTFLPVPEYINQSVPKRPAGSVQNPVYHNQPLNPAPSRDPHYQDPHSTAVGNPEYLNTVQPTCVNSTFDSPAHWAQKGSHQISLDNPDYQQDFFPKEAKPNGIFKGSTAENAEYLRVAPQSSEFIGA

IC50 (A431 cells) [nM]	GI50 [1] [nM]	GI50 [2] [nM]	GI50 [3] [nM]	SMILES
4880	970			COc1cc(F)cc(-c2cnc(Nc3cnn(C)c3)nc2Nc2cc(NC(=O)/C=C/CN(C)C)ccc2F)c1 [Compound 144, (E)-4-(dimethylamino)-N-(4-fluoro-3-((5-(3-fluoro-5-methoxyphenyl)-2-((1-methyl-1H-pyrazol-4-yl)amino)pyrimidin-4-yl)amino)phenyl)but-2-enamide]
> 10000	> 10000			C=CC(=O)Nc1ccc(F)c(Nc2nc(Nc3cnn(C)c3)ncc2-c2cc(F)cc(OC(C)C)c2)c1 [Compound 129, N-(4-fluoro-3-((5-(3-fluoro-5-isopropoxyphenyl)-2-((1-methyl-1H-pyrazol-4-yl)amino)pyrimidin-4-yl)amino)phenyl)acrylamide]
11	147	36		[2H]C([2H])([2H])n1cc(Nc2ncc(-c3ccc(Br)c(F)c3)c(Nc3cc(NC(=O)C=C)ccc3F)n2)cn1 [Compound 169, N-(3-((5-(4-bromo-3-fluorophenyl)-2-((1-(methyl-d3)-1H-pyrazol-4-yl)amino)pyrimidin-4-yl)amino)-4-fluorophenyl)acrylamide]
301	738			Cn1cc(Nc2ncc(-c3ccc(Br)c(F)c3)c(Nc3cc(NC(=O)/C=C/CN4CCCCC4)ccc3F)n2)cn1 [Compound 142, (E)-N-(3-((5-(4-bromo-3-fluorophenyl)-2-((1-methyl-1H-pyrazol-4-yl)amino)pyrimidin-4-yl)amino)-4-fluorophenyl)-4-(piperidin-1-yl)but-2-enamide]
19	309			C=CC(=O)Nc1ccc(F)c(Nc2nc(Nc3cnn(C)c3)ncc2-c2cc(F)c(N(C)C)c(F)c2)c1 [Compound 156, N-(3-((5-(4-(dimethylamino)-3,5-difluorophenyl)-2-((1-methyl-1H-pyrazol-4-yl)amino)pyrimidin-4-yl)amino)-4-fluorophenyl)acrylamide]
388	264			[2H]c1ccc(NC(=O)C=C)cc1Nc1nc(Nc2cnn(C)c2)ncc1-c1cc(F)cc(OC)c1 [Compound 145, N-(3-((5-(3-fluoro-5-methoxyphenyl)-2-((1-methyl-1H-pyrazol-4-yl)amino)pyrimidin-4-yl)amino)phenyl-4-d)acrylamide]
1160	5200			C=CC(=O)Nc1ccc(F)c(Nc2nc(Nc3cnn(C)c3)ncc2-c2ccc(Br)c(N(C)C)c2)c1 [Compound 119, N-(3-((5-(4-bromo-3-(dimethylamino)phenyl)-2-((1-methyl-1H-pyrazol-4-yl)amino)pyrimidin-4-yl)amino)-4-fluorophenyl)acrylamide]
13	164		61	C=CC(=O)Nc1ccc(F)c(Nc2nc(Nc3cnn(C)c3)ncc2-c2cc(F)c(C(F)(F)F)c(F)c2)c1 [Compound 20, N-(3-((5-(3,5-difluoro-4-(trifluoromethyl)phenyl)-2-((1-methyl-1H-pyrazol-4-yl)amino)pyrimidin-4-yl)amino)-4-fluorophenyl)acrylamide trifluoroacetate]
215	352			C=CC(=O)Nc1ccc(F)c(Nc2nc(Nc3cnn(C)c3)ncc2-c2ccc(Br)c(C(F)F)c2)c1 [Compound 118, N-(3-((5-(4-bromo-3-(difluoromethyl)phenyl)-2-((1-methyl-1H-pyrazol-4-yl)amino)pyrimidin-4-yl)amino)-4-fluorophenyl)acrylamide]
819	5780			C=CC(=O)Nc1ccc(F)c(Nc2nc(Nc3cn(C)nc3Cl)ncc2-c2ccc(OC)c(OC)c2)c1 [Compound 110, N-(3-((2-((3-chloro-1-methyl-1H-pyrazol-4-yl)amino)-5-(3,4-dimethoxyphenyl)pyrimidin-4-yl)amino)-4-fluorophenyl)acrylamide]
290	669			C=CC(=O)Nc1ccc(F)c(Nc2nc(Nc3cnn(C)c3)ncc2-c2ccc(OCc3cccc(F)c3)c(Cl)c2)c1 [Compound 122, N-{3-[(5-{3-chloro-4-[(3-fluorophenyl)methoxy]phenyl}-2-[(1-methyl-1H-pyrazol-4-yl)amino]pyrimidin-4-yl)amino]-4-fluorophenyl}prop-2-enamide]
> 10000	> 10000			C=CC(=O)Nc1ccc(F)c(Nc2nc(Nc3cnn(C)c3)ncc2-c2cc(F)cc(N3CCCC3)c2)c1 [Compound 121, N-(4-fluoro-3-((5-(3-fluoro-5-(pyrrolidin-1-yl)phenyl)-2-((1-methyl-1H-pyrazol-4-yl)amino)pyrimidin-4-yl)amino)phenyl)acrylamide]

The next lines start with the compound.

SMILES	IC50 (A431 cells) [nM]	GI50 [1] [nM]	GI50 [2] [nM]	GI50 [3] [nM]
C=CC(=O)Nc1ccc(F)c(Nc2nc(Nc3cnn(C)c3)ncc2-c2cc(OC)cc(OC)c2)c1 [Compound 116, N-(3-((5-(3,5-dimethoxyphenyl)-2-((1-methyl-1H-pyrazol-4-yl)amino)pyrimidin-4-yl)amino)-4-fluorophenyl)acrylamide]	3520	> 10000		
C=CC(=O)Nc1ccc(F)c(Nc2nc(Nc3cnn(C)c3)ncc2-c2ccc(F)cc2C(F)(F)F)c1 [Compound 107, N-(4-fluoro-3-((5-(4-fluoro-2-(trifluoromethyl)phenyl)-2-((1-methyl-1H-pyrazol-4-yl)amino)pyrimidin-4-yl)amino)phenyl)acrylamide]	3130	7340		
C=CC(=O)Nc1ccc(F)c(Nc2nc(Nc3cnn(C)c3)ncc2-c2ccc3c(c2)OC(C)(C)O3)c1 [Compound 114, N-(3-((5-(2,2-dimethylbenzo[d][1,3]dioxol-5-yl)-2-((1-methyl-1H-pyrazol-4-yl)amino)pyrimidin-4-yl)amino)-4-fluorophenyl)acrylamide]	77	4570		
C=CC(=O)Nc1ccc(F)c(Nc2nc(Nc3cnn(C)c3)ncc2-c2ccc(Br)c(OC)c2)c1 [Compound 134, N-(3-((5-(4-bromo-3-methoxyphenyl)-2-((1-methyl-1H-pyrazol-4-yl)amino)pyrimidin-4-yl)amino)-4-fluorophenyl)acrylamide]	238	453		
C=CC(=O)Nc1ccc(F)c(Nc2nc(Nc3cnn(C)c3)ncc2-c2ccc3c(c2)OCCO3)c1 [Compound 111, N-(3-((5-(2,3-dihydrobenzo[b][1,4]dioxin-6-yl)-2-((1-methyl-1H-pyrazol-4-yl)amino)pyrimidin-4-yl)amino)-4-fluorophenyl)acrylamide]	164	1080		
O=C(O)C(F)(F)F.[2H]C([2H])([2H])n1cc(Nc2ncc(-c3cnc(F)c(F)c3)c(Nc3cc(NC(=O)C=C)ccc3F)n2)cn1 [Compound 101, N-(3-((5-(5,6-difluoropyridin-3-yl)-2-((1-(methyl-d3)-1H-pyrazol-4-yl)amino)pyrimidin-4-yl)amino)-4-fluorophenyl)acrylamide]			15	
C=CC(=O)Nc1ccc(F)c(Nc2nc(Nc3cnn(C)c3)ncc2-c2cc(F)cc(OCC3CC3)c2)c1 [Compound 130, N-(3-((5-(3-(cyclopropylmethoxy)-5-fluorophenyl)-2-((1-methyl-1H-pyrazol-4-yl)amino)pyrimidin-4-yl)amino)-4-fluorophenyl)acrylamide]	> 10000	> 10000		
C=CC(=O)Nc1ccc(F)c(Nc2nc(Nc3cnn(C)c3)ncc2-c2cc(F)cc(N3CCC3)c2)c1 [Compound 120, N-(3-((5-(3-(azetidin-1-yl)-5-fluorophenyl)-2-((1-methyl-1H-pyrazol-4-yl)amino)pyrimidin-4-yl)amino)-4-fluorophenyl)acrylamide]	9280	> 10000		
C=CC(=O)Nc1ccc(F)c(Nc2nc(Nc3cnn(C)c3)ncc2-c2ccc(Br)cc2F)c1 [Compound 112, N-(3-((5-(4-bromo-2-fluorophenyl)-2-((1-methyl-1H-pyrazol-4-yl)amino)pyrimidin-4-yl)amino)-4-fluorophenyl)acrylamide]	497	923		
C=CC(=O)Nc1ccc(F)c(Nc2nc(Nc3cnn(C)c3)ncc2-c2cnc(C(F)(F)F)c(F)c2)c1 [Compound 61, N-(4-fluoro-3-((5-(5-fluoro-6-(trifluoromethyl)pyridin-3-yl)-2-((l-methyl-1H-pyrazol-4-yl)amino)pyrimidin-4-yl)amino)phenyl)acrylamide]		37		11
C=CC(=O)Nc1cccc(Nc2nc(Nc3cnn(C)c3)ncc2-c2cc(F)c(F)c(F)c2)c1 [Compound 148, N-(3-((2-((1-methyl-1H-pyrazol-4-yl)amino)-5-(3,4,5-trifluorophenyl)pyrimidin-4-yl)amino)phenyl)acrylamide]	29	45	10	
